Patent publication US20090233917A1, “Stroke recovery” (priority 2006, published 2009)
Entries after “also recorded” stand apart in the source; their conditions may differ.

Experiments:
[1] = Cerebrospinal fluid (CSF) levels after oral administration in humans; format: in vivo, human; conditions: 3 and 6 hours after oral administration, increasing doses
[2] = system: permanent middle cerebral artery occlusion (MCAO) in rats; test: Functional recovery following permanent MCAO in rats (Example 1); format: in vivo, Sprague Dawley Rats
Source text: The purpose of this study was to evaluate the efficacy of arimoclomol and iroxanadine in enhancing neurological recovery in a model of permanent middle cerebral artery occlusion (MCAO) in rats. The permanent MCAO is a well accepted and considered to be a standard animal model for studying clinical aspects of stroke. (Stroke. 1999; 30:2752-2758.)
Forty male Sprague Dawley Rats, each weighing 300-400 g, which had been housed and handled for behavioral assessment for seven (7) days prior to surgery for acclimation purposes, were operated under anesthesia to create focal cerebral infarcts by permanent occlusion of the proximal right middle cerebral artery (MCA) according to modified Tamura model. Briefly, the rats were anesthetized with 2-3% halothane in the mixture of N2O:O2 (2:1), and were maintained with 1˜1.5% halothane in the mixture of N2O:O2 (2:1). The temporalis muscle was bisected and reflected through an incision made midway between the eye and the eardrum canal. The proximal MCA was exposed through a subtemporal craniectomy without removing the zygomatic arch and without transecting the facial nerve. […] Body temperature was maintained at 37.5° C.±0.5° C. throughout the entire procedure. Cefazolin (40 mg/kg; Baxter, Lot 06014.1, Exp. January 2009) was given i.p. one day before MCAO and just after MCAO to prevent infections.
The rats were randomly divided into 4 groups of 10 animals each. One group was given arimoclomol, p.o., starting at one hour after the occlusion at 200 mg/kg/d once daily for 3 days, then 50 mg/kg/d once daily for a total of 29 days. The second group was given iroxanadine using the same dosing regimen as for arimoclomol. The third group is a positive control group and is given intracistemally 1 μg (at 20 μg/ml, also containing 100 μg/ml of bovine serum albumin) beta-fibroblast growth factor (bFGF) one hour and one day (i.e. two administrations) after the occlusion. The fourth group is a negative control with administration of the vehicle only.
Animals were evaluated preoperation (day −1), then every 7 days after the operation (7, 14, 21, and 28 days) by forelimb and hindlimb placing tests and body swing test, which are widely accepted as standard tests indicative of functional recovery after a stroke model.
For the forelimb placing test, the examiner held the rat close to a tabletop and scored the rat's ability to place the forelimb on the tabletop in response to whisker, visual, tactile, or proprioceptive stimulation. Similarly, for the hindlimb placing test, the examiner assessed the rat's ability to place the hindlimb on the tabletop in response to tactile and proprioceptive stimulation. Separate sub-scores were obtained for each mode of sensory input (halfpoint designations possible), and added to give total scores (for the forelimb placing test: 0=normal, 12=maximally impaired; for the hindlimb placing test: 0=normal; 6=maximally impaired).
For the body swing test, the rat was held approximately one inch from the base of its tail. It was then elevated to an inch above a surface of a table. The rat was held in the vertical axis, defined as no more than […] to either the left or the right side. A swing was recorded whenever the rat moved its head out of the vertical axis to either side. The rat must return to the vertical position for the next swing to be counted. Thirty (30) total swings were counted. A normal rat typically has an equal number of swings to either side. Following focal ischemia, the rat tends to swing to the contralateral (left) side.
The behavior was evaluated by giving the score ranging in the parentheses after each test: • Forelimb placing test (0-12), consisting of whisker tactile placing (0-2); visual placing (forward, sideways) (0-4); tactile placing (dorsal, lateral) (0-4); and proprioceptive placing (0-2); • Hindlimb placing test (0-6), consisting of tactile placing (dorsal, lateral) (0-4); and proprioceptive placing (0-2). […]

[3] = system: MCA occlusion in rats; test: Functional recovery following MCA occlusion in rats, therapeutic window / time course (Examples 4, 5); format: in vivo, Sprague Dawley Rats
Procedure: Fifty male Sprague Dawley Rats, each weighing 300-400 g, are operated under anesthesia to create MCA occlusion as described in Example 1, and are divided into 5 groups of 10 animals each. […] One group is a control group with administration of the vehicle only at 6 hours. The animals are evaluated as described in Example 2. The experiment of Example 4 is also carried out using iroxanadine as the therapeutic agent.

[4] = system: healthy human volunteers; test: Pharmacokinetic clinical study in healthy human volunteers; format: in vivo
Procedure: Seven healthy human volunteers were administered orally 400 mg t.i.d. dosing (1200 mg/day) in a double-blinded and placebo controlled clinical study.

[5] = system: MCA occlusion in rats; test: Functional recovery following MCA occlusion in rats, dose study (Examples 2, 3, 6); format: in vivo, Sprague Dawley Rats
Procedure: Fifty male Sprague Dawley Rats, each weighing 300-400 g, are operated under anesthesia to create MCA occlusion as described in Example 1, and are divided into 5 groups of 10 animals each. Each group is given arimocolomol, p.o., starting at one day after the occlusion at 25 mg/kg/d, 50 mg/kg/d, 100 mg/kg/d, or 200 mg/kg/d once daily for 35 days. One group is a control group with administration of the vehicle only.
Animals are evaluated pre-operation (day −1), then every 7 days after the operation (7, 14, 21, 28, and 35) by forelimb and hindlimb placing tests and body swing test, and given scores as described in Example 1.
On day 35 after MCAO, rats in the control group and the group with the highest dosage were sacrificed and their brains evaluated as in Example 1. The rats in other groups are sacrificed and the brains were removed and flash frozen for further analysis.

[6] = treatment from 1 h after occlusion, up to 28 days

Structure (SMILES): [O-][n+]1cccc(/C(Cl)=N/OC[C@H](O)CN2CCCCC2)c1 [arimoclomol, N-[2-hydroxy-3-(1-piperidinyl)propoxy]-pyridine-1-oxide-3-carboximidoyl chloride]
- penetration of the human blood-brain barrier (CSF levels) [1]: penetrates the human blood-brain barrier
- Infarct Volume (%) ([2]; day 28 after permanent MCAO, percentage of intact contralateral hemispheric volume, mean ± S.E.M.): 21.6 ± 3.6%
- Body Swing Test, recovery compared to vehicle group [2, 6]: superior to the vehicle group; also recorded: non-significant trend of enhanced recovery
- Forelimb Placing Test, recovery compared to vehicle group [2, 6]: superior to the vehicle group
- Hindlimb Placing Test, recovery compared to vehicle group [2, 6]: superior to the vehicle group
- Body Swing Test, recovery compared to vehicle group ([3]; 200 mg/kg/d p.o., all start times): superior to the vehicle group
- Hindlimb Placing Test, time course of recovery compared to vehicle group ([3]; 200 mg/kg/d p.o., first dose 6, 12, 24 or 48 h after occlusion): superior to the vehicle group
- Forelimb Placing Test, recovery compared to vehicle group ([3]; 200 mg/kg/d p.o., first dose 6, 12, 24 or 48 h after occlusion, all groups): superior to the vehicle group
- Hindlimb Placing Test, difference among treated groups ([3]; first administration 6, 12, 24, or 48 hours after occlusion): no statistical difference
- Body Swing Test, performance after 21 days ([3]; first administration 6 hours after occlusion): continued to show improved performance
- Forelimb Placing Test, recovery compared to other start times ([3]; first administration 6 hours after stroke): superior
- Forelimb Placing Test, recovery ([3]; first administration 48 hours after occlusion): significant and sustained
- Body Swing Test, recovery of 48 h group compared to 6 h group ([3]; time points up to and including 21 days after occlusion): indistinguishable
- clinical abnormalities or changes (ECGs, vital signs, clinical chemistry, physical examination, body weight) ([4]; 400 mg t.i.d. (1200 mg/day) orally): No clinical abnormalities or changes were observed
- level of exposure of the 200 mg/kg/day rat PK study in humans ([4]; 400 mg t.i.d. orally, AUC and Cmax, FIG. 15): can be safely achieved in human volunteers
- behavioral scores compared to vehicle control group ([5]; 25 mg/kg/day p.o. from one day after occlusion): no significant difference
- behavioral scores (forelimb placement, hindlimb placement, body swing tests) ([5]; 50, 100 and 200 mg/kg/day p.o. from one day after occlusion, 35 days): significant dose related improvement
- changes in infarct volume ([5]; day 35, highest dosage vs control): no changes
- changes in body weight ([5]; dose study, 35 days): no changes
- effective doses in the stroke recovery model ([5]; p.o. once daily): 50 to 200 mg/kg/day
- maximum effective dose in the study ([5]; p.o. once daily): 200 mg/kg/day
